Patent EP1021178B1, “SELENOPHENE ANTI-TUMOR AGENTS” (Purdue Research Foundation, priority 1996, dated 1997)

Each compound was assayed on SK-OV-3 (assay: NCI human tumor cell panel). Conditions: SK-OV-3, read-out: Log10 LC50 (converted).

Structure (SMILES) | CC50 [µM]
O=Cc1ccc(-c2ccc(-c3cccs3)[se]2)s1 | > 100
O=Cc1ccc(-c2ccc(-c3ccc(C=O)[se]3)s2)[se]1 | > 100
O=Cc1ccc(-c2ccc(-c3ccc(C=O)s3)[se]2)s1 | > 100
OCc1ccc(-c2ccc(-c3ccc[se]3)s2)[se]1 | > 100
OCc1ccc(-c2ccc(-c3ccc(CO)[se]3)s2)s1 | 51.3
OCc1ccc(-c2ccc(-c3ccc(CO)s3)[se]2)s1 | > 100
O=Cc1ccc(-c2ccc(-c3ccc(C=O)[se]3)s2)s1 | > 100
OCc1ccc(-c2ccc(-c3cccs3)[se]2)s1 | > 100

Same assay, conditions: SK-OV-3, read-out: Log10 TGI

Structure (SMILES) | IC (TGI) [µM]
OCc1ccc(-c2ccc(-c3ccc(CO)s3)[se]2)s1 | > 100
